Assay results reported in patent publication US5777190A (priority 1997, dated 1998).

Key:
rats = settings: rat, in vivo; cited from earlier work
[1] = biological target: ferredoxin NADP oxidoreductase (FNR, EC 1.18.1.2) from spinach (Spinacia oleracea, UniProt P00455)
ferredoxin NADP oxidoreductase (FNR, EC 1.18.1.2) from spinach, sequence (P00455 56-369): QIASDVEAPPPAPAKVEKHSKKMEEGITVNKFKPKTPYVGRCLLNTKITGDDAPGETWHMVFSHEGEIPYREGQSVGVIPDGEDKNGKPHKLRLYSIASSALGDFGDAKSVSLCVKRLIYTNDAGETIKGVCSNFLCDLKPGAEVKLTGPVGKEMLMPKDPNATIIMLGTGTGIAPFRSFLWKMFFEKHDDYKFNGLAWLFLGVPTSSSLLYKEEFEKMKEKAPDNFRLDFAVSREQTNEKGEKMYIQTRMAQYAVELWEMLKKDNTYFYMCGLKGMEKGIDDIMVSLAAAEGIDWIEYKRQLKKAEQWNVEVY

Q: With `O=[N+]([O-])c1ccccc1` [nitrobenzene] as the compound, how does the LD50 (rats) read?
A: Its LD50 is 640 mg/kg.

Q: And the “reduction by FNR under aerobic conditions” value [1]?
A: Its value is “not reduced”.

Q: And the “stoichiometry of transformation by FNR” value [1]?
A: The value was “One mole of PHA is formed for every mole of nitrobenzene”.

Q: What about the “reduction by FNR under nitrogen (product formed)” value ([1]; pH 8.5) of the same compound?
A: The value was “transformation of nitrobenzene to PHA by FNR”.
